Assay results taken from patent US20160137639A1, “TRIAZOLE-ISOXAZOLE COMPOUND AND MEDICAL USE THEREOF” (JAPAN TOBACCO INC., priority 2012, published 2016).
Read-outs that look alike come from different tables or passages of the source.

Assays:
human RORγ = target: T1, human RORγ (Homo sapiens, UniProt P51449); assay: Luciferase reporter gene assay of inhibitory effect against RORγ transcriptional activity (GAL4-hRORγ plasmid in CHO cells); assay type: cell-based
T1 construct: human, NM_005060.3 and from Ser253 to Lys518; expressed in transfected cells; host or cells: CHO cells (transient co-transfection with pG5-Luc reporter)
T1 sequence (P51449 253-518): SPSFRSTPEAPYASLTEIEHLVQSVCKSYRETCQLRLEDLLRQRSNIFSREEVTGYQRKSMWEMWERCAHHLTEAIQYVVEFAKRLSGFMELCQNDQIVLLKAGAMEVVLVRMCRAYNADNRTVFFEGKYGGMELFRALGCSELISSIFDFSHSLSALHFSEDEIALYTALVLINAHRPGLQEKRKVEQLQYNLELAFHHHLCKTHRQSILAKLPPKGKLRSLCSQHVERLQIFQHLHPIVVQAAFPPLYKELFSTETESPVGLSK

mouse RORγ = target: T2, mouse RORγ (Mus musculus, UniProt P51450); assay: Luciferase reporter gene assay of inhibitory effect against RORγ transcriptional activity (GAL4-mRORγ plasmid in CHO cells); assay type: cell-based
T2 construct: mouse, NM_011281.2 and from Ile251 to Lys516; expressed in transfected cells; host or cells: CHO cells (transient co-transfection with pG5-Luc reporter)
T2 sequence (P51450 251-516): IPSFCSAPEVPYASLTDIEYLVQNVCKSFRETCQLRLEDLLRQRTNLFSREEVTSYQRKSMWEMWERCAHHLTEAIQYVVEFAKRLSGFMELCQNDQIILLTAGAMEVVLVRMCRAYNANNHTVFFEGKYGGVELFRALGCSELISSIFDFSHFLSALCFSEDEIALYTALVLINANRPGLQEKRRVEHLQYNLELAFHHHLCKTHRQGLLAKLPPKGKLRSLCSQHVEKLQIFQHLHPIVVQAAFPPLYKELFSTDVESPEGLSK
How it was run: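 Readout is intracellular luciferase after 2-day compound exposure (8 concentrations, 0.1% DMSO) in CHO cells expressing GAL4 fused to mouse RORγ LBD residues Ile251–Lys516 plus pG5-Luc reporter. EC50 fitted from %-of-control; points showing resazurin-detected cytotoxicity dropped.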

| SMILES | EC50 (human RORγ; read-out: LUC EC50 hRORg) | EC50 (mouse RORγ; read-out: LUC EC50 mRORg) | EC50 (human RORγ; read-out: LUC EC50 (μM) hRORg) | EC50 (mouse RORγ; read-out: LUC EC50 (μM) mRORg) |
| --- | --- | --- | --- | --- |
| Cc1ccc(NC(=O)[C@H]2CC(=O)C[C@@H]2c2nnc([C@H]3C[C@@H](CC(C)C)C3)n2C2CC2)c(C)c1 (racemic) [Example F-533] | < 3 µM | < 3 µM | – | – |
| COC1CCC(CCc2nnc(CCC(=O)Nc3cccc(Cl)c3C)n2C2CC2)CC1 (centres unmarked) [Example F-242] | – | – | > 3 µM | < 3 µM |
| Cc1c(CO)cccc1NC(=O)CCc1nnc(CCC(C)C)n1C1CC1 [Example F-87] | – | – | > 3 µM | > 3 µM |
| Cc1ccc(NC(=O)C[C@H](CCC(=O)O)c2nnn([C@H]3C[C@@H](CC(C)(C)C(C)C)C3)c2C2CC2)c(F)c1 [Example F-706] | < 3 µM | < 3 µM | – | – |
| Cc1ccc(NC(=O)C[C@H](N)c2nnc(CCCC(C)(C)C)n2C2CC2)c(C)c1 [Example F-359] | – | – | < 3 µM | < 3 µM |
| Cc1ccc(NC(=O)C[C@H](CCC(=O)O)c2noc([C@H]3C[C@@H](CC(C)(C)C)C3)c2C2CC2)c(C)n1 [Example F-673] | < 3 µM | < 3 µM | – | – |
| Cc1ccc(NC(=O)CC(CN2C(=O)N(C)C(C)(C)C2=O)c2nnc(CCCC(C)(C)C)n2C2CC2)c(C)c1 (racemic) [Example F-508] | > 3 µM | > 3 µM | – | – |
| Cc1ccc(NC(=O)C[C@H](CC#N)c2nnc([C@H]3C[C@@H](CC(C)C)C3)n2C2CC2)c(C)c1 [Example F-465] | – | – | < 3 µM | < 3 µM |
| Cc1ccc(NC(=O)CCc2nnc(CCC3CCCCC3)n2[C@@H]2C[C@H]2C)c(C)c1 (racemic) [Example F-141] | – | – | > 3 µM | < 3 µM |
| CC(=O)N1C[C@H](C(=O)Nc2ccc(C)cc2C)[C@@H](c2nnc(CCCC(C)(C)C)n2C2CC2)C1 [Example F-338] | – | – | < 3 µM | < 3 µM |
| COc1ccccc1NC(=O)CCc1nnc(CCC(C)C)n1C1CC1 [Example F-73] | – | – | > 3 µM | > 3 µM |
| Cc1ccc(NC(=O)C[C@H](CCC(=O)O)c2noc(-c3cnc(CC(C)C)s3)c2C2CC2)c(Cl)c1 [Example E-41, Sodium (S)-5-(2-chloro-4-methyl-phenylcarbamoyl)-4-[4-cyclopropyl-5-(2-isobutyl-thiazol-5-yl)-isoxazol-3-yl]-pentanoate] | – | – | < 3 µM | < 3 µM |
| Cc1ccc(NC(=O)C[C@H](CC(N)=O)c2noc([C@H]3C[C@@H](CC(C)C)C3)c2C2CC2)c(C)c1 [Example F-642] | < 3 µM | < 3 µM | – | – |
| CC(=O)N1C[C@H](C(=O)Nc2ccc(C)cc2C)[C@@H](c2nnc(C3CC3CC(C)C)n2C2CC2)C1 (mixture of isomers) [Example F-340] | – | – | > 3 µM | < 3 µM |
| CCc1cccc(NC(=O)CCc2nnc(CCC(C)C)n2C2CC2)c1 [Example F-132] | – | – | > 3 µM | > 3 µM |
| Cc1c(NC(=O)C[C@H](OCC(F)(F)F)c2nnc(-c3cc(CC(C)C)on3)n2C2CC2)ccc(F)c1F [Example F-633] | < 3 µM | < 3 µM | – | – |
| Cc1ccc(NC(=O)CC(CCO)c2nnc(CCC3CCCCC3)n2C2CC2)c(C)c1 (racemic) [Example F-248] | – | – | < 3 µM | < 3 µM |
| CCO[C@@H](CC(=O)Nc1ccc(C)cc1C)c1nnc(-c2cc(CC(C)C)on2)n1C1CC1 [Example F-569] | < 3 µM | < 3 µM | – | – |
| CNC(=O)CCC(CC(=O)Nc1ccc(C)cc1C)c1nnc(CCCC(C)C)n1C1CC1 (racemic) [Example F-285] | – | – | > 3 µM | < 3 µM |
| CC(C)CCc1nnc(CCC(=O)Nc2cccc3ccccc23)n1C1CC1 [Example F-81] | – | – | < 3 µM | < 3 µM |
| Cc1ccc(NC(=O)C[C@H](NC(C)C)c2nnc([C@H]3C[C@@H](CC(C)C)C3)n2C2CC2)c(C)c1 [Example F-536] | < 3 µM | < 3 µM | – | – |
| Cc1cccc(NC(=O)CCc2nnc(CCC(C)C)n2C2CC2)c1 [Example F-65] | – | – | > 3 µM | > 3 µM |
| C=CCC(CC(=O)Nc1ccc(C)cc1C)c1nnc([C@H]2C[C@@H](CC(C)C)C2)n1C1CC1 (mixture of isomers) [Example F-509] | < 3 µM | < 3 µM | – | – |
| Cc1ccc(NC(=O)C[C@H](CCC(=O)O)c2noc(-c3cc(CC(C)(C)C)on3)c2C2CC2)c(F)c1 [Example E-65] | – | – | < 3 µM | < 3 µM |
| Cc1ccc(NC(=O)CCc2nnc([C@H]3C[C@@H](CC(C)(C)C)C3)n2C2CC2)c(C)c1 [Example F-426] | – | – | < 3 µM | < 3 µM |

| SMILES | EC50 (human RORγ; read-out: LUC EC50 hRORg) | EC50 (mouse RORγ; read-out: LUC EC50 mRORg) | EC50 (human RORγ; read-out: LUC EC50 (μM) hRORg) | EC50 (mouse RORγ; read-out: LUC EC50 (μM) mRORg) |
| --- | --- | --- | --- | --- |
| CCn1c(CCC(=O)Nc2cccc(Cl)c2C)nnc1CCC(C)C [Example F-52] | – | – | > 3 µM | < 3 µM |
| Cc1ccc(NC(=O)CC(CCC(=O)N(C)C)c2nnc(CCCC(C)C)n2C2CC2)c(C)c1 (racemic) [Example F-286] | – | – | < 3 µM | < 3 µM |
| Cc1ccc(NC(=O)C[C@@H](CCCO)c2nnc([C@H]3C[C@@H](CC(C)C)C3)n2C2CC2)c(C)c1 [Example F-510] | > 3 µM | > 3 µM | – | – |
| Cc1ccc(NC(=O)C[C@H](CCO)c2nnc(CCCC(C)(C)C)n2CC(F)(F)F)c(C)c1 [Example F-380] | – | – | < 3 µM | < 3 µM |
| Cc1c(Cl)cccc1NC(=O)CCc1nnc(CC(C)C)n1C1CC1 [Example F-107] | – | – | > 3 µM | > 3 µM |
| CNC(=O)C(C)(C)C[C@H]1C[C@@H](c2onc([C@@H](CCC(=O)O)CC(=O)Nc3ccc(C)cc3Cl)c2C2CC2)C1 [Example F-728] | < 3 µM | < 3 µM | – | – |
| Cc1ccc(NC(=O)C[C@H](CCC(=O)O)c2noc(-c3cc(C4C(C)(C)C4(C)C)on3)c2C2CC2)c(Cl)c1 [Example E-44] | – | – | < 3 µM | < 3 µM |
| Cc1ccc(NC(=O)CC(CC(=O)O)c2nnc(CCCC(C)C)n2C2CC2)c(C)c1 (racemic) [Example F-252] | – | – | > 3 µM | > 3 µM |
| Cc1ccc(NC(=O)C[C@H](CNC(=O)CC#N)c2noc([C@H]3C[C@@H](CC(C)C)C3)c2C2CC2)c(C)c1 [Example F-647] | < 3 µM | < 3 µM | – | – |
| Cc1ccc(NC(=O)CCc2nnc(CCC(C)C)n2C2CC2)c(C)c1 [Example F-79] | – | – | > 3 µM | > 3 µM |
| CNC(=O)CO[C@@H](CC(=O)Nc1ccc(C)cc1C)c1nnc([C@H]2C[C@@H](CC(C)C)C2)n1C1CC1 [Example F-480] | – | – | < 3 µM | < 3 µM |
| COc1ccc(NC(=O)CCc2nnc(CCC(C)C)n2C2CC2)c(C)c1 [Example F-82] | – | – | > 3 µM | > 3 µM |
| COc1cc(C)ccc1CNC(=O)[C@H]1CN(C(C)=O)C[C@@H]1c1nnc(CCCC(C)C)n1C1CC1 (racemic) [Example F-279] | – | – | < 3 µM | < 3 µM |
| Cc1ccc(NC(=O)[C@H]2CN(C(=O)CCC(=O)O)C[C@@H]2c2noc([C@H]3C[C@@H](CC(C)(C)C)C3)c2C2CC2)c(Cl)c1 [Example F-688, 4-((3R,4R)-3-(2-Chloro-4-methyl-phenylcarbamoyl)-4-{4-cyclopropyl-5-[3-(2,2-dimethyl-propyl)-cyclobutyl]-isoxazol-3-yl}pyrrolidin-1-yl)-4-oxo-butanoic acid] | < 3 µM | < 3 µM | – | – |
| Cc1ccc(NC(=O)C[C@H](CCC(=O)O)c2noc(-c3ncc(CC(C)C)o3)c2C2CC2)c(Cl)c1 [Example E-18] | – | – | < 3 µM | < 3 µM |
| Cc1ccc(NC(=O)[C@H]2CN(C)C[C@@H]2c2nnc([C@H]3C[C@@H](CC(C)(C)C)C3)n2C2CC2)c(C)c1 [Example F-549] | < 3 µM | < 3 µM | – | – |
| CC(C)CCc1nnc(CCC(=O)NC[C@H](O)c2ccccc2)n1C1CC1 [Example F-103] | – | – | > 3 µM | > 3 µM |
| Cc1ccc(NC(=O)[C@H]2CN(S(C)(=O)=O)C[C@@H]2c2nnc(CCCC(C)(C)C)n2C2CC2)c(C)c1 (racemic) [Example F-397] | – | – | < 3 µM | < 3 µM |
| Cc1cc(F)ccc1NC(=O)C[C@H](CCC(=O)O)c1noc(-c2cc(CCC(C)(C)C)on2)c1C1CC1 [Example E-37] | – | – | < 3 µM | < 3 µM |
| CC(=O)N1C[C@H](C(=O)Nc2ccc(C)cc2C)[C@@H](c2nnc(-c3cc(C(C)C)on3)n2C2CC2)C1 (racemic) [Example F-350] | – | – | < 3 µM | < 3 µM |
| CC(C)CCc1nnc(CCC(=O)Nc2cc(F)cc(Cl)c2)n1C1CC1 [Example F-109] | – | – | > 3 µM | > 3 µM |
| Cc1ccc(NC(=O)C[C@H](CC(C)(C)O)c2nnc([C@H]3C[C@@H](CC(C)C)C3)n2C2CC2)c(C)c1 [Example F-599] | < 3 µM | < 3 µM | – | – |
| CCC(C)CCc1nnc(CCC(=O)Nc2cccc(Cl)c2C)n1C1CC1 (racemic) [Example F-235] | – | – | < 3 µM | < 3 µM |
| Cc1ccc(NC(=O)C[C@H](CCO)c2nnc(C3CC4(CCC(C)(C)CC4)C3)n2C2CC2)c(C)c1 [Example F-602] | < 3 µM | < 3 µM | – | – |
